Experimental data from publication PMC8657793, “Synthesis, In Vitro and In Silico Anticancer Activity of New 4-Methylbenzamide Derivatives Containing 2,6-Substituted Purines as Potential Protein Kinases Inhibitors” (International Journal of Molecular Sciences, 2021).
Values joined by “and” are separate entries in the source; they are usually repeats but may differ in a detail not shown here. Equal entries are not always repeated.

Tests used:
IGF1R = target: T1, IGF1R (Homo sapiens, UniProt P08069); assay: Kinase Selectivity Profiling System TK-1 / ADP-Glo, IGF1R; type: biochemical
T1 construct: purchased Promega
Procedure: (§1) At the end, 10 μL of kinase detection reagent was added into the well and incubated for 30 min to produce a luminescence signal.

PDGFRβ = target: T2, PDGFRβ (Homo sapiens, UniProt P09619); assay: Kinase Selectivity Profiling System TK-1 / ADP-Glo, PDGFRβ; type: biochemical
T2 construct: purchased Promega
T2 sequence (P09619 33-1106): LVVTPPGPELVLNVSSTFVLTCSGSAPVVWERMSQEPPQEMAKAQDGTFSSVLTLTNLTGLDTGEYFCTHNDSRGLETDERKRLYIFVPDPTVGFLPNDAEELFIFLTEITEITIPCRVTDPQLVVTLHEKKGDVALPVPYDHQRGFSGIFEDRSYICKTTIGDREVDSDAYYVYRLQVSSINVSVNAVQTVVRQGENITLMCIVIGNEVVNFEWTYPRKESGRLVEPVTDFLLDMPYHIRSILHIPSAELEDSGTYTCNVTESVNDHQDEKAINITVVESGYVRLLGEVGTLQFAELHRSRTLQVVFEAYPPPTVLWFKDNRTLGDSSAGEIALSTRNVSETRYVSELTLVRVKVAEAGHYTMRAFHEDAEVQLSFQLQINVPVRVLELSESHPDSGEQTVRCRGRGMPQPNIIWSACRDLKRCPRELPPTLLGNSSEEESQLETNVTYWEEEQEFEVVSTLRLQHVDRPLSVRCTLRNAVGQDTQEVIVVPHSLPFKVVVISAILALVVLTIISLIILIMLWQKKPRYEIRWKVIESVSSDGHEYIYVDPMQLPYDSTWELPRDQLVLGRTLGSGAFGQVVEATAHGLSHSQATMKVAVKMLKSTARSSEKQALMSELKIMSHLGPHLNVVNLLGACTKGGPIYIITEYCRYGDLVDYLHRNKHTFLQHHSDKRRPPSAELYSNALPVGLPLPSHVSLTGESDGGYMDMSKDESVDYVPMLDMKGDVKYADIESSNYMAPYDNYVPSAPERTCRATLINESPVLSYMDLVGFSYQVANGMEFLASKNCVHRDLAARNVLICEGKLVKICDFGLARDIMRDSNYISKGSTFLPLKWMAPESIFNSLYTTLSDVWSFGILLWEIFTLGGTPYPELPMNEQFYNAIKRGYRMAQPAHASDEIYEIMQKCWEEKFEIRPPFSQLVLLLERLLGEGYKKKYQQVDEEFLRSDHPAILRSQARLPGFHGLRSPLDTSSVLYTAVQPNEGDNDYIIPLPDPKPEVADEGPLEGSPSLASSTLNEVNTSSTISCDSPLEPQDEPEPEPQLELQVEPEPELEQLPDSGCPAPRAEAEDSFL
Procedure: as §1

[1] = system: HL-60 (promyelocytic leukemia); assay: MTT anti-proliferative assay, HL-60; type: cell-based; settings: Homo sapiens, 48 h
Procedure: (§2) For the in vitro assays, a stock solution (1% DMSO in the appropriate buffer with the tested compound diluted under sonication) was prepared from which several dilutions were made with the appropriate buffer.
(§3) Human cell lines were obtained from the Institute of Cytology, Russian Academy of Sciences. […] Plates were incubated under standard conditions for 48 h.

HER2 = target: T3, HER2 (Homo sapiens, UniProt P04626); assay: Kinase Selectivity Profiling System TK-1 / ADP-Glo, HER2; type: biochemical
T3 construct: purchased Promega
Procedure: as §1

[2] = system: K562 (chronic myelogenous leukemia); assay: MTT anti-proliferative assay, K562; type: cell-based; settings: Homo sapiens, 48 h
Procedure: as §2, §3

A549 (lung carcinoma) = assay: MTT anti-proliferative assay, A549; type: cell-based; settings: Homo sapiens, 48 h
Procedure: (§4) To determine the selectivity of the synthesized compounds 7–16 toward various cancer cells and normal human cells, the anti-proliferative activity against K562 (chronic myelogenous leukemia), HL-60 (promyelocytic leukemia), MCF-7 (breast adenocarcinoma), HeLa (cervix carcinoma), HepG2 (human liver cancer), A549 (lung carcinoma), OKP-GS (renal cell carcinoma), and normal cells RPMI 1788 (B lymphocyte, the human cell line) was investigated.
(§5) Each in vitro experiment was performed at least in triplicate and the standard deviation of absorbance was less than 10% of the mean. For the in vitro assays, a stock solution (1% DMSO in the appropriate buffer with the tested compound diluted under sonication) was prepared from which several dilutions were made with the appropriate buffer.
(§6) Human cell lines were obtained from the Institute of Cytology, Russian Academy of Sciences. The cell lines studied were maintained in RPMI 1640 medium (AppliChem, Darmstadt, Germany) supplemented with 20% (HL-60, RPMI 1788) fetal calf serum (HyClone, Cramlington, UK), in DMEM (A 549) and Eagle’s MEM (AppliChem) (MCF7, HeLa) with 10% fetal calf serum (HyClone). Cells were cultivated at 37 °C in a humidified atmosphere of 5% CO2. Cellular sensitivities to synthesized compounds and standards were measured with the MTT assay. Cells were plated in triplicate in 96-well plates (10^5 cells/well for suspended cell cultures and 5 × 10^3 cells/well for monolayer cultures); on the same day (suspended cell cultures) or on the following day (monolayer cultures), compounds were added at the appropriate dilutions. Anti-proliferative activity was studied at concentrations 0.1–50.0 µM. The reference drugs were imatinib, sorafenib and nilotinib. Plates were incubated under standard conditions for 48 h. Thereafter, 10 μL MTT (Sigma) in phosphate-buffered saline (5 mg/mL) was added. The plates were incubated for an additional 4 h and 150 μL dimethylsulphoxide (DMSO) was added to dissolve the formazan crystals. The optical density was read on a HALO MPR-95 Microplate Reader (Dynamica Scientific Ltd., Melbourne, Victoria, Australia) at 570 nm. The antiproliferative effects were taken as degrees of inhibition of tumor cells (%). The average of three parallel measurements was calculated for each concentration of test compound. The degree of cell growth suppression was plotted as a function of the logarithm of the concentration. The half maximal inhibitory concentration (IC50) was determined graphically for active compounds.

OKP-GS cells = assay: Cell cycle distribution, propidium iodide staining, flow cytometry; type: cell-based, human; settings: 72 h
Procedure: To assess changes in the distribution of cells by phases of the cell cycle, we used the method of staining fixed samples with propidium iodide (Calbiochem, USA). Pre-fixation of cells was carried out with 70% ethanol for […]. To exclude the binding of propidium iodide to RNA, the fixed samples were treated with RNAse A at a final concentration of 50 μg/mL (R4875, Sigma, St. Louis, MI, USA) for 15 min at 37 °C [34, 35].
Tumor cells were seeded on a 6-well plate at a density of 200.000 per well for HL-60 and 100.000 per well for OKP-GS. Test compounds 7 and 10 were added at concentrations of 5, 10, and 20 μM for 72 h. Then, the cells were washed from the culture medium by centrifugation at 1000 rpm for 5 min, washed again with PBS, then fixed with ice-cold ethanol during constant shaking and incubated at −20 °C for 24 h. After that, we washed it from alcohol by centrifugation, washed it again with PBS and added a solution containing 100 μg/mL RNase A and 10 μg/mL propidium iodide (PI), incubated for 40 min in the dark and measure it on a Cytomics FC500 Beckman Coulter flow cytometer (FL4 channel for PI). Received data were analyzed with the help of Kaluza 2.0 Software (Beckman Coulter, Brea, CA, USA).

[3] = system: OKP-GS (renal cell carcinoma); assay: MTT anti-proliferative assay, OKP-GS; type: cell-based; settings: Homo sapiens, 48 h
Procedure: as §4, §5, §6

HeLa (cervix carcinoma) = assay: MTT anti-proliferative assay, HeLa; type: cell-based; settings: Homo sapiens, 48 h
Procedure: as §4, §5, §6

EGFR = target: T4, EGFR (Homo sapiens, UniProt P00533); assay: Kinase Selectivity Profiling System TK-1 / ADP-Glo, EGFR; type: biochemical
T4 construct: purchased Promega
Procedure: as §1

Bcr–Abl1 kinase = target: T5, Bcr–Abl1 kinase (Homo sapiens, UniProt P00519); assay: Abl1 Kinase Enzyme System / ADP-Glo kinase assay; type: biochemical; settings: ATP 50 μM; for inhibition at 0.5 µM: 0.5 µM compound; for inhibition at 10 µM: 10 µM compound
T5 construct: purchased Promega
Procedure: as §1

KDR (VEGFR-2) = target: T6, KDR (VEGFR-2) (Homo sapiens, UniProt P35968); assay: Kinase Selectivity Profiling System TK-1 / ADP-Glo, KDR; type: biochemical
T6 construct: purchased Promega
T6 sequence (P35968 20-1356): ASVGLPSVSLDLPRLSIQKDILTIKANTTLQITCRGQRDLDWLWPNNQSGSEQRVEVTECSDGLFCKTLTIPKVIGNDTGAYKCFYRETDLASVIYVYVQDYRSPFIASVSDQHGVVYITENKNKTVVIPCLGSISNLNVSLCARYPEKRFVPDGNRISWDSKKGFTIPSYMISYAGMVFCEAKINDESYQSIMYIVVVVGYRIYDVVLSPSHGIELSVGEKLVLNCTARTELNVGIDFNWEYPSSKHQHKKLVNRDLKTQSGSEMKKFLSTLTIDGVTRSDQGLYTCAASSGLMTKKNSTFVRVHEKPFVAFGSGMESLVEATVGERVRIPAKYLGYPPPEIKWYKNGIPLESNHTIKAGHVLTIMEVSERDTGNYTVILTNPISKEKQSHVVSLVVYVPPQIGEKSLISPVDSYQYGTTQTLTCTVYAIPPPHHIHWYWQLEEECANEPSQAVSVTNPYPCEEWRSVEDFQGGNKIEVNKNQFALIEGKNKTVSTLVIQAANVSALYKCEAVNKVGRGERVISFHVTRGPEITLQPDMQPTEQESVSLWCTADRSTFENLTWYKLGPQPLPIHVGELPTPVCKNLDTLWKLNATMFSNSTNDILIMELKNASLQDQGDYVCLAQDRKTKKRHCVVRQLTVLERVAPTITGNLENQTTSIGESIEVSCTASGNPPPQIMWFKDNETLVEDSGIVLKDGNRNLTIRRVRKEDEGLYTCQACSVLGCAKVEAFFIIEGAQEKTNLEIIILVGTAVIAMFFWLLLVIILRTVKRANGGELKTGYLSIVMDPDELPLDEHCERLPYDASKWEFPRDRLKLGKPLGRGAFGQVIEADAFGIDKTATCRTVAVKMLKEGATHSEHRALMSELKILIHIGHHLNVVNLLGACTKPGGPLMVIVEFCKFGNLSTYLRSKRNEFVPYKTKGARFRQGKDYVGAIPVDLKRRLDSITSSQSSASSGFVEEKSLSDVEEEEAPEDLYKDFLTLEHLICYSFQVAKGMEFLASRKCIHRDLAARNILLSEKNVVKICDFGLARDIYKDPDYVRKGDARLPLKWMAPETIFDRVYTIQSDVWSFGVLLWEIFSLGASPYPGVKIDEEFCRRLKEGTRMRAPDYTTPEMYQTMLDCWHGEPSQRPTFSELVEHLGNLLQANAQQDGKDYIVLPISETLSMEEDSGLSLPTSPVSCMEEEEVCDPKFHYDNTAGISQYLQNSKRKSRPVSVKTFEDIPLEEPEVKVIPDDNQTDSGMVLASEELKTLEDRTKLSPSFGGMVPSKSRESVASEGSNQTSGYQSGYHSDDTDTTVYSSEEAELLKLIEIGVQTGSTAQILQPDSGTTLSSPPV
Procedure: as §1

HER4 = target: T7, HER4 (Homo sapiens, UniProt Q15303); assay: Kinase Selectivity Profiling System TK-1 / ADP-Glo, HER4; type: biochemical
T7 construct: purchased Promega
T7 sequence (Q15303 26-1308): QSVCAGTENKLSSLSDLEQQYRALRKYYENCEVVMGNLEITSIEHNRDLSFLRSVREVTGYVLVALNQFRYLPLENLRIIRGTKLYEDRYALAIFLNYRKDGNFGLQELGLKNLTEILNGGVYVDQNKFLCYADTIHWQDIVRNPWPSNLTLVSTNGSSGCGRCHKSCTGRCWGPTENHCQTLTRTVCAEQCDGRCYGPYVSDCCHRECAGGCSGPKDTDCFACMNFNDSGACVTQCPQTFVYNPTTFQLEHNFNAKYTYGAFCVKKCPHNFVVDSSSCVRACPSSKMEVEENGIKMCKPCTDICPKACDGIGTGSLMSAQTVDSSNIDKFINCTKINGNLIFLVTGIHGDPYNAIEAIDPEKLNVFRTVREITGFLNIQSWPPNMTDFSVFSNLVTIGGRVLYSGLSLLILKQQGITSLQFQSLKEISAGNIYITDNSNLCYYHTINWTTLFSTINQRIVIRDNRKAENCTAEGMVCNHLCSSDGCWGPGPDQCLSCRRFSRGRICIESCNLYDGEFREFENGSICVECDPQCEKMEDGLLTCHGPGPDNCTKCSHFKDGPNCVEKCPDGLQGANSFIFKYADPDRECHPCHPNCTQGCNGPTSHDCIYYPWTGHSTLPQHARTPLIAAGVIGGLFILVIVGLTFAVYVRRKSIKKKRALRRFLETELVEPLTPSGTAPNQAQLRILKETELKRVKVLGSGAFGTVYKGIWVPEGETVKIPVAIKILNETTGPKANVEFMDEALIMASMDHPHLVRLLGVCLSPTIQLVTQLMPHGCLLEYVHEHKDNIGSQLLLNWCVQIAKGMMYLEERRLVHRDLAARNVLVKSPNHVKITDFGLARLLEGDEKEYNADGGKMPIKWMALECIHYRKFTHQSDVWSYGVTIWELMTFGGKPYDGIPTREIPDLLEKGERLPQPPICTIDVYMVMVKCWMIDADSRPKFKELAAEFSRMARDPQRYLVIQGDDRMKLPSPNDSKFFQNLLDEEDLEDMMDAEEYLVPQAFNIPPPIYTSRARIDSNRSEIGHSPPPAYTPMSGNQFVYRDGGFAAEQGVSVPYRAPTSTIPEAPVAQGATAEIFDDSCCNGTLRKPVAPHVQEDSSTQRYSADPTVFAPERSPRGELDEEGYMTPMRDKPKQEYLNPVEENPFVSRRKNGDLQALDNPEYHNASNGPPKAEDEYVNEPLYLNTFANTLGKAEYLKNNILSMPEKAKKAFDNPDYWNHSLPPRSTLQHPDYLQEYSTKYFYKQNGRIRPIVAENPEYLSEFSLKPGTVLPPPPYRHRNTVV
Procedure: as §1

InsR = target: T8, InsR (Homo sapiens, UniProt P06213); assay: Kinase Selectivity Profiling System TK-1 / ADP-Glo, InsR; type: biochemical
T8 construct: purchased Promega
T8 sequence (P06213 28-1382): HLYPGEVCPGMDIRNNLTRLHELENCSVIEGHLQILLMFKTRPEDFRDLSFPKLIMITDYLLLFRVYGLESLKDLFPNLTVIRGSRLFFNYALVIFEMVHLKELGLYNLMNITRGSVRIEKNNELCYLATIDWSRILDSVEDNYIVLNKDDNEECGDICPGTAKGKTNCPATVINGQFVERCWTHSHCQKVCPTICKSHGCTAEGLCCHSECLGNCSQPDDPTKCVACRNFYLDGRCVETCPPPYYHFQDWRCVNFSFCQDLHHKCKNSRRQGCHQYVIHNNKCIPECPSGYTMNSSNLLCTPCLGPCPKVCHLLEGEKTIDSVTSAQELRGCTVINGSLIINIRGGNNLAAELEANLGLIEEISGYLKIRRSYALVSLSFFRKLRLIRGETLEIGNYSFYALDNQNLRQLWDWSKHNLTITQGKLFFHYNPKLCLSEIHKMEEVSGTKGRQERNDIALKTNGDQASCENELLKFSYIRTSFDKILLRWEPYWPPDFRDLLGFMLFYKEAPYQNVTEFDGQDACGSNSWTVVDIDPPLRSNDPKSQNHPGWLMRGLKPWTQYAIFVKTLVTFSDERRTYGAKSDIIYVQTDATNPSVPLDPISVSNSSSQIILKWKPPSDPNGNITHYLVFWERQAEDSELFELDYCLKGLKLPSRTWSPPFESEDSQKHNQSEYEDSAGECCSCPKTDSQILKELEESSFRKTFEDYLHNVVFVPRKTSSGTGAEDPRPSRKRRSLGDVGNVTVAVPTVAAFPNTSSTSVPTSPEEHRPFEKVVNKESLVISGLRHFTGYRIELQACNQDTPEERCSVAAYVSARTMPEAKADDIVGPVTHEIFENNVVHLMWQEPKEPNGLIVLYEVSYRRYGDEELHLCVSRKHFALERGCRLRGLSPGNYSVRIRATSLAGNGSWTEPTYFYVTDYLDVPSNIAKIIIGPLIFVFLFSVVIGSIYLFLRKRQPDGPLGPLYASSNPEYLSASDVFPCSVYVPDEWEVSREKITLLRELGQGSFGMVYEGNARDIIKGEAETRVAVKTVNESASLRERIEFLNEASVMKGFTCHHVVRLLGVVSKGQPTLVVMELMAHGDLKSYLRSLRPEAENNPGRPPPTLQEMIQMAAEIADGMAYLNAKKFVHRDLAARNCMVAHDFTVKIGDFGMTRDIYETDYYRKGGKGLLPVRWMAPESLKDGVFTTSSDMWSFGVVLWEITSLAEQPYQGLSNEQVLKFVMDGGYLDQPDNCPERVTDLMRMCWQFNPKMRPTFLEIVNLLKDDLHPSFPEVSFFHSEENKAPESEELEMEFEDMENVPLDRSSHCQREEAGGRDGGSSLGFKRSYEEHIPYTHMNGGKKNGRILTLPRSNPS
Procedure: as §1

Row | SMILES | inhibition at 1 µM (IGF1R) [%] | inhibition at 1 µM (PDGFRβ) [%] | IC50 [1] [µM] | inhibition at 1 µM (HER2) [%] | IC50 [2] [µM] | IC50 (A549 (lung carcinoma)) [µM] | Cells in G1 phase (OKP-GS cells; 5 μM) [%] | Cells in G2/M phase (OKP-GS cells; 5 μM) | Cells in S phase (OKP-GS cells; 5 μM) [%] | Cells in G2/M phase (OKP-GS cells; 20 μM) | Cells in S phase (OKP-GS cells; 20 μM) [%] | IC50 [3] [µM] | IC50 (HeLa (cervix carcinoma)) [µM] | inhibition at 1 µM (EGFR) [%] | inhibition at 0.5 µM (Bcr–Abl1 kinase) [%] | inhibition at 10 µM (Bcr–Abl1 kinase) [%] | inhibition at 1 µM (KDR (VEGFR-2)) [%] | inhibition at 1 µM (HER4) [%] | inhibition at 1 µM (InsR) [%] | melting point [°C] | other results
1 | O=C(Nc1cccc(C(F)(F)F)c1)c1ccc(Cn2cnc3c(Cl)nc(Cl)nc32)cc1 [Compound 7, 4-((2,6-Dichloro-9H-purin-9-yl)methyl)-N-(3-(trifluoromethyl)phenyl)benzamide] | 0 | 36 to 45 | 1.42 ± 0.54 | 22 to 26 | 2.27 ± 0.81 | 26.9 ± 0.64 | 60.9 | 23.53% and 23.5% | 14.2 | 29.94% and 29.9% | 17.4 | 4.56 ± 1.73 | 6.93 ± 1.18 | 6 | 24 | 16 | 11 | 0 | 6 |  | % Inhibition at 1 µM, PDGFRβ (PDGFRβ): 30%; % Inhibition at 1 µM, HER2 (HER2): 22%; Cells in G1 phase (OKP-GS cells; 10 μM): 55.5%; Cells in G2/M phase (OKP-GS cells; 10 μM): 26.02% and 26.0%; Cells in S phase (OKP-GS cells; 10 μM): 17.7%; Cells in G1 phase (OKP-GS cells; 20 μM): 51.2%
2 | Cc1cn(-c2cc(NC(=O)c3ccc(Cn4cnc5c(Cl)nc(Cl)nc54)cc3)cc(C(F)(F)F)c2)cn1 [Compound 10, 4-((2,6-Dichloro-9H-purin-9-yl)methyl)-N-(3-(4-methyl-1H-imidazol-1-yl)-5-(trifluoromethyl)-phenyl)benzamide] | 0 | 39 | 1.52 ± 0.66 | 11 | 2.53 ± 0.77 | 18 ± 0.73 | 56.9 | 24.3% | 16.8 | 25.3% | 19.3 | 24.8 ± 3.25 | 6.05 ± 1.03 | 9 | 36 | 43 | 16 | 0 | 0 |  | Cells in G1 phase (OKP-GS cells; 10 μM): 53.3%; Cells in G2/M phase (OKP-GS cells; 10 μM): 24.2%; Cells in S phase (OKP-GS cells; 10 μM): 21.5%
3 | COc1nc(Cl)nc2c1ncn2Cc1ccc(C(=O)Nc2cccc(C(F)(F)F)c2)cc1 [Compound 13, 4-((2-Chloro-6-methoxy-9H-purin-9-yl)methyl)-N-(3-(trifluoromethyl)phenyl)benzamide] | 0 | 17 | 26.1 ± 1.23 | 0 | 29.7 ± 1.87 | 13 ± 0.67 |  |  |  |  |  | 15.5 ± 2.27 | 15.4 ± 1.92 | 29 | 24 | 21 | 30 | 0 | 0 | 212 to 214 | 
4 | COc1nc(Cl)nc2c1ncn2Cc1ccc(C(=O)Nc2cc(-n3cnc(C)c3)cc(C(F)(F)F)c2)cc1 [Compound 14, 4-((2-Chloro-6-methoxy-9H-purin-9-yl)methyl)-N-(3-(4-methyl-1H-imidazol-1-yl)-5-(trifluoromethyl)phenyl)benzamide] | 0 | 20 | 48.6 ± 3.02 | 8 | 27.5 ± 1.19 | 20.1 ± 0.81 |  |  |  |  |  | 10.6 ± 2.88 | 33.7 ± 7.49 | 9 | 18 | 17 | 27 | 0 | 17 | 160 to 162 | 
5 | Nc1nc(Cl)nc2c1ncn2Cc1ccc(C(=O)Nc2cccc(C(F)(F)F)c2)cc1 [Compound 15, 4-((6-Amino-2-chloro-9H-purin-9-yl)methyl)-N-(3-(trifluoromethyl)phenyl)benzamide] | 0 | 33 | 7.18 | 0 | 30.6 ± 0.94 |  |  |  |  |  |  |  |  | 0 | 17 | 28 | 13 | 0 | 0 | 272 to 274 | 
6 | CNC(=O)c1cc(Oc2ccc(NC(=O)Nc3ccc(Cl)c(C(F)(F)F)c3)cc2)ccn1 [Sorafenib, sorafenib, reference compound] |  |  |  |  | 2.9 ± 0.4 | 6.01 ± 1.27 |  |  |  | 19.7% | 17.3 | 13.6 ± 1.71 | 6.82 ± 2.64 |  |  |  |  |  |  |  | Cells in G1 phase (OKP-GS cells; 20 μM): 61.9%
